We go through one compound from PMC6934184, “Selective DNA-PKcs inhibition extends the therapeutic index of localized radiotherapy and chemotherapy” (The Journal of Clinical Investigation, 2019).

The assay concerns the target T1, PLK2 (Homo sapiens, UniProt Q9NYY3).
T1 construct: purchased Thermo Fisher Scientific (Life Technologies) SelectScreen
The experiment in a line: SelectScreen Z'LYTE. It counts as biochemical. An outline of the steps:
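SelectScreen broad panel; activity (Z'LYTE, Adapta) plus binding formats. ATP: Km app for CSF1R Z'LYTE; 10 for CAMK1 Adapta. Readout = % per kinase.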

T1 sequence (Q9NYY3 whole entry): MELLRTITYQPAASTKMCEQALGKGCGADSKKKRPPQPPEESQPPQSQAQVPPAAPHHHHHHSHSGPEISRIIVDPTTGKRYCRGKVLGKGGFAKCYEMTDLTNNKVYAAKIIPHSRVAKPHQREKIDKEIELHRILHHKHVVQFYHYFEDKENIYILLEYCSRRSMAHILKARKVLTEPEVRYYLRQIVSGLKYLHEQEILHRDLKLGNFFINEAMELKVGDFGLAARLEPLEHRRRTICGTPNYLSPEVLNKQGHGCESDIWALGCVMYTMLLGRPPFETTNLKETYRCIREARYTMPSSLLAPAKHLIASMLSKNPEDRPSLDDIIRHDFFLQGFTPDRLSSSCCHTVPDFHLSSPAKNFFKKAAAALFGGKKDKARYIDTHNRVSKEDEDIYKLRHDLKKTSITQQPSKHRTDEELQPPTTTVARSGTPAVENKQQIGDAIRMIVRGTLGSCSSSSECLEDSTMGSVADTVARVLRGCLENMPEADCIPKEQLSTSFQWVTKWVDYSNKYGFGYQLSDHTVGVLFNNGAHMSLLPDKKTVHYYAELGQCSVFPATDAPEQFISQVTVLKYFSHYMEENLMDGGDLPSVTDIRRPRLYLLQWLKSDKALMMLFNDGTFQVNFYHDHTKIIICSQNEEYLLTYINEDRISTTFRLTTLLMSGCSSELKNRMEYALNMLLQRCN

For `CN(C(=O)CN1CCOCC1)c1ccc2sc3c(-c4cccc5c(=O)cc(N6CC7CCC(C6)O7)oc45)cccc3c2c1` [NU5455], 1 µM produced 14.1% inhibition.

For orientation: inhibition means the change of the read-out against control, counted positive when it falls. Higher therefore signals strong suppression.
